PubChem BioAssay (NCI)
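In this assay, cells in 96-well plates receive the compound at five concentrations for 48 hours. Endpoints are linearly interpolated between the surrounding concentrations. GI50 is the concentration that inhibits growth by half. TGI is the concentration that stops growth completely.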

Assays:
Assay in all cases: NCI-60 cell line screen, 48 h
[1] = system: K-562 leukemia
[2] = system: HOP-92 NSCLC
[3] = system: A498 renal
[4] = system: CCRF-CEM leukemia
[5] = system: M14 melanoma
[6] = system: SF-539 CNS
[7] = system: EKVX NSCLC
[8] = system: HS 578T breast
[9] = system: LOX IMVI melanoma
[10] = system: T-47D breast
[11] = system: BT-549 breast
[12] = system: KM12 colon
[13] = system: 786-0 renal
[14] = system: TK-10 renal
[15] = system: UO-31 renal
[16] = system: SK-MEL-2 melanoma
[17] = system: DU-145 prostate
[18] = system: U251 CNS
[19] = system: NCI/ADR-RES ovarian
[20] = system: MDA-MB-435
[21] = system: HL-60(TB) leukemia
[22] = system: UACC-257 melanoma
[23] = system: OVCAR-3 ovarian
[24] = system: MCF7 breast
[25] = system: OVCAR-8 ovarian
[26] = system: HT29 colon
[27] = system: ACHN renal
[28] = system: A549 NSCLC
[29] = system: SN12C renal
[30] = system: NCI-H226 lung
[31] = system: SNB-75 CNS
[32] = system: UACC-62 melanoma
[33] = system: SK-MEL-5 melanoma
[34] = system: OVCAR-4 ovarian
[35] = system: SNB-19 CNS
[36] = system: PC-3 prostate
[37] = system: RXF 393 renal
[38] = system: CAKI-1 renal
[39] = system: SK-OV-3 ovarian
[40] = system: SF-295 CNS
[41] = system: MDA-MB-231 breast
[42] = system: HCC-2998 colon
[43] = system: HCT-15 colon
[44] = system: NCI-H23 lung
[45] = system: SK-MEL-28 melanoma
[46] = system: SW-620 colon
[47] = system: NCI-H460 lung
[48] = system: OVCAR-5 ovarian
[49] = system: MALME-3M melanoma
[50] = system: COLO 205 colon
[51] = system: HOP-62 NSCLC
[52] = system: NCI-H522 lung
[53] = system: SF-268 CNS
[54] = system: RPMI-8226 leukemia
[55] = system: HCT-116 colon
[56] = system: SR leukemia
[57] = system: MOLT-4 leukemia
[58] = system: IGROV1 ovarian
[59] = system: MDA-N

Compound: COc1cc(S(=O)(=O)Nc2nc(-c3ccc(N4C(=O)C(C)SC4c4ccccc4O)cc3)cs2)ccc1Cl (stereo unspecified)
- GI50 [1]: 33.4 µM
- TGI [1]: > 100 µM
- GI50 [2]: 28 µM
- TGI [2]: > 100 µM
- GI50 [3]: 51.3 µM
- TGI [3]: > 100 µM
- GI50 [4]: 5.55 µM
- TGI [4]: > 100 µM
- GI50 [5]: 38.6 µM
- TGI [5]: > 100 µM
- GI50 [6]: 32.6 µM
- TGI [6]: > 100 µM
- GI50 [7]: 42.8 µM
- TGI [7]: > 100 µM
- GI50 [8]: 43.1 µM
- TGI [8]: > 100 µM
- GI50 [9]: 52.1 µM
- TGI [9]: > 100 µM
- GI50 [10]: 28.8 µM
- TGI [10]: > 100 µM
- GI50 [11]: 32 µM
- TGI [11]: > 100 µM
- GI50 [12]: 51.1 µM
- TGI [12]: > 100 µM
- GI50 [13]: 64.9 µM
- TGI [13]: > 100 µM
- GI50 [14]: 97.6 µM
- TGI [14]: > 100 µM
- GI50 [15]: 37.2 µM
- TGI [15]: > 100 µM
- GI50 [16]: 38.7 µM
- TGI [16]: > 100 µM
- GI50 [17]: 42.5 µM
- TGI [17]: > 100 µM
- GI50 [18]: 32.8 µM
- TGI [18]: > 100 µM
- GI50 [19]: 50.9 µM
- TGI [19]: > 100 µM
- GI50 [20]: 43.6 µM
- TGI [20]: > 100 µM
- GI50 [21]: 38 µM
- TGI [21]: > 100 µM
- GI50 [22]: 32.8 µM
- TGI [22]: > 100 µM
- GI50 [23]: 35.6 µM
- TGI [23]: > 100 µM
- GI50 [24]: 49 µM
- TGI [24]: > 100 µM
- GI50 [25]: 42.2 µM
- TGI [25]: > 100 µM
- GI50 [26]: 56.5 µM
- TGI [26]: > 100 µM
- GI50 [27]: 42.7 µM
- TGI [27]: > 100 µM
- GI50 [28]: 39.7 µM
- TGI [28]: > 100 µM
- GI50 [29]: 47.4 µM
- TGI [29]: > 100 µM
- GI50 [30]: 20.3 µM
- TGI [30]: > 100 µM
- GI50 [31]: 42.4 µM
- TGI [31]: > 100 µM
- GI50 [32]: 39.9 µM
- TGI [32]: > 100 µM
- GI50 [33]: 26 µM
- TGI [33]: > 100 µM
- GI50 [34]: 26.4 µM
- TGI [34]: > 100 µM
- GI50 [35]: 43.3 µM
- TGI [35]: > 100 µM
- GI50 [36]: 30.1 µM
- TGI [36]: > 100 µM
- GI50 [37]: > 100 µM
- TGI [37]: > 100 µM
- GI50 [38]: 67.7 µM
- TGI [38]: > 100 µM
- GI50 [39]: 50.6 µM
- TGI [39]: > 100 µM
- GI50 [40]: 31.8 µM
- TGI [40]: > 100 µM
- GI50 [41]: 32.6 µM
- TGI [41]: > 100 µM
- GI50 [42]: 50.3 µM
- TGI [42]: > 100 µM
- GI50 [43]: 37.3 µM
- TGI [43]: > 100 µM
- GI50 [44]: 42.2 µM
- TGI [44]: > 100 µM
- GI50 [45]: 39.5 µM
- TGI [45]: > 100 µM
- GI50 [46]: 62 µM
- TGI [46]: > 100 µM
- GI50 [47]: 42.5 µM
- TGI [47]: > 100 µM
- GI50 [48]: 49.5 µM
- TGI [48]: > 100 µM
- GI50 [49]: 89.2 µM
- TGI [49]: > 100 µM
- GI50 [50]: 40.6 µM
- TGI [50]: > 100 µM
- GI50 [51]: 59.4 µM
- TGI [51]: > 100 µM
- GI50 [52]: 53.7 µM
- TGI [52]: > 100 µM
- GI50 [53]: 41.4 µM
- TGI [53]: > 100 µM
- GI50 [54]: 17.4 µM
- TGI [54]: > 100 µM
- GI50 [55]: 28.6 µM
- TGI [55]: > 100 µM
- GI50 [56]: 43.3 µM
- TGI [56]: > 100 µM
- GI50 [57]: 34.4 µM
- TGI [57]: > 100 µM

Compound: Cc1cc(S(=O)(=O)Nc2nc3cscc3c(=O)n2N)c(S)cc1Cl
- TGI [58]: > 100 µM
- TGI [1]: > 100 µM
- TGI [4]: > 100 µM
- TGI [5]: > 100 µM
- TGI [6]: > 100 µM
- TGI [7]: > 100 µM
- TGI [9]: > 100 µM
- TGI [11]: > 100 µM
- TGI [12]: > 100 µM
- TGI [13]: > 100 µM
- TGI [14]: > 100 µM
- TGI [16]: > 100 µM
- TGI [17]: > 100 µM
- TGI [18]: > 100 µM
- TGI [19]: 73.4 µM
- TGI [20]: > 100 µM
- TGI [21]: > 100 µM
- TGI [22]: > 100 µM
- TGI [23]: > 100 µM
- TGI [24]: > 100 µM
- TGI [25]: > 100 µM
- TGI [26]: > 100 µM
- TGI [27]: > 100 µM
- TGI [28]: > 100 µM
- TGI [29]: > 100 µM
- TGI [30]: 48.5 µM
- TGI [31]: 58.5 µM
- TGI [32]: > 100 µM
- TGI [33]: > 100 µM
- TGI [34]: > 100 µM
- TGI [35]: > 100 µM
- TGI [36]: > 100 µM
- TGI [38]: > 100 µM
- TGI [59]: > 100 µM
- TGI [39]: > 100 µM
- TGI [40]: > 100 µM
- TGI [41]: > 100 µM
- TGI [42]: > 100 µM
- TGI [43]: > 100 µM
- TGI [44]: > 100 µM
- TGI [45]: > 100 µM
- TGI [46]: > 100 µM
- TGI [47]: > 100 µM
- TGI [48]: 64 µM
- TGI [49]: 90.4 µM
- TGI [50]: > 100 µM
- TGI [51]: > 100 µM
- TGI [52]: 77.9 µM
- TGI [53]: > 100 µM
- TGI [54]: > 100 µM
- TGI [55]: > 100 µM
- TGI [57]: > 100 µM
